# Measured values published in patent publication US11590092B2, “Skin probiotic” (The Regents of the University of California, priority 2014, dated 2023).
# Entries after “also recorded” stand apart in the source; their conditions may differ.
# How the values were obtained:
# USA300 [1] = test: MBC assay against USA300; assay type: cell-based, Staphylococcus aureus
# Description: To determine the MBC of propionic acid, USA300 (10^6 CFU/ml) were incubated with propionic acid at various concentrations (1.25-100 mM in PBS) as indicated in each individual experiment in media on a 96-well microplate (100 μl per well) overnight. The control received only PBS. After incubation, the bacteria were diluted 1:10-1:10^6 with PBS. […] To determine the pH effect on the bacterial growth, USA300 in TSB was incubated with 2.5 mM propionic acid on a 96-well microplate (100 μl per well) overnight before spotting on an agar plate.
# To determine the minimal bactericidal concentration (MBC) and minimal fungicidal concentration (MFC) of propionic acid, microorganisms (10^6 colony forming units (cfu)/ml) were incubated overnight in media with propionic acid (1.25-2,000 mM) in a 96-well microplate (100 μl per well). The control only received PBS. After incubation, the microorganisms were diluted 1:10-1:10^6 into PBS. […]
# P. acnes [2] = test: MBC assays of SCFAs against P. acnes; assay type: cell-based, Propionibacterium acnes; conditions: for MBC: Cutibacterium acnes, P. acnes 10^8 CFU/ml, overnight, 99.9% killing level
# Description: To determine the MBC values of SCFAs, P. acnes (10^8 CFU/ml) was incubated with SCFAs at various concentrations (2.5-100 mM in PBS) as indicated in each individual experiment in media on a 96-well microplate (100 μl per well) overnight. The control received only PBS. After incubation, the bacteria were diluted 1:10-1:10^6 with PBS. MBC was defined as a 99.9% killing level and determined by spotting the dilution (5 μl) on an agar plate supplemented with media for CFU counting. To determine the effect of pH on its growth, P. acnes in PBS was incubated with 5 mM succinic acid on a 96-well microplate (100 μl per well) overnight before spotting on an agar plate. As controls, P. acnes was incubated with PBS (pH 7.4) alone, PBS (pH 5.5; a pH value corresponding to the MBC of succinic acid in PBS), or buffered succinic acid (5 mM succinic acid, pH 7.4 buffered with ammonium hydroxide).
# The minimal bactericidal concentration (MBC) assays were performed to determine if SCFAs exert the antimicrobial activities against P. acnes. Bacteria were incubated with acetic acid, butyric acid, lactic acid, and succinic acid various concentrations in media for 24 h. After incubation, the bacteria were diluted with PBS and spotted on an agar plate to count CFUs. […] To assess the acidity (pH 5.5) of 5 mM succinic acid in affecting growth of P. acnes, bacteria were incubated with PBS (pH 5.5) or ammonium hydroxide-buffered succinic acid (pH 7.4).
# P. acnes [3] = test: Growth curve of P. acnes in absence or presence of glycerol (OD600); assay type: cell-based, Propionibacterium acnes; conditions: rich medium with glycerol vs without, anaerobic, 30° C.
# Description: P. acnes was incubated in rich medium in the absence (□) and presence (▪) of glycerol on a 96-well microplate under anaerobic conditions at 30° C. The OD600 was read at the indicated time points. Data are the mean±SD of three separate experiments.
# USA300 [4] = test: Interference of P. acnes fermentation with the colonization of USA300 in skin wounds in vivo; design: species or system ICR mice; conditions: glycerol 0.2 mg alone, compared to PBS
# Description: A 5 mm wound made on the dorsal skin of ICR mice were described above. P. acnes bacteria (10^7 CFU in 5 μl PBS), P. acnes bacteria and glycerol (0.2 mg), PBS (5 μl) alone or glycerol alone were applied onto the skin wounds for 3 days. USA300 (10^7 CFU in 5 μl PBS) was administered onto the same wounds. The wounds were excised, weighted and homogenized 3 days after USA300 administration. Bacterial CFUs in the wounds were enumerated by plating serial dilutions (1:10^1-1:10^6) of the homogenate on a TSB agar plate. The plate was incubated for 24 h at 37° C. to count colonies of USA300.
# USA300 [5] = test: Growth of USA300 with glycerol; assay type: cell-based, Staphylococcus aureus; conditions: glycerol itself
# P. acnes [6] = conditions: 5 mM, 5 min after treatment, vs PBS
# Description: To eliminate unbound probe, bacteria were incubated with glucose (10 mM) for an additional 30 min, washed twice in 50 mM PBS with 10 mM MgCl2, pH 7.0, and then re-suspended in 1 mM PBS. […] Fluorescence intensities were measured immediately and every min for 5 min using an excitation wavelength of 490 nm and emission wavelength of 520 nm. A drop in relative fluorescence indicates the decrease in intracellular pH. Fluorescence of the bacteria-free filtrate (background fluorescence) was measured after the 5-min assay. The treated suspensions were centrifuged at 5,000 g for 5 min, the fluorescence of the bacteria-free supernatant was measured. Calibration curves were obtained by incubation of un-treated, cFSE-loaded bacteria in buffers of various pHs. The buffer containing glycine (50 mM), citric acid (50 mM), Na2HPO4.2H2O (50 mM), and KCl (50 mM) was adjusted to various pH values ranging from 4 to 10. Equilibration of the intracellular and extracellular pH was conducted by addition of 1 μM valinomycin and nigericin (Sigma, St. Louis, Mo.).
# P. acnes was loaded with an internally conjugated fluorescent pH probe, carboxyfluorescein succinimidyl ester (cFSE).
# P. acnes [7] = tested on: P. acnes
# [8] = topical application, 100 mM once per day, vs PBS
smiles,measurement,setting,value
"CCC(=O)OCCOCCOC(=O)CC [PA-DEG-PA, propionic acid 2-(2-propionyloxyethoxy)ethyl ester]",efficacy to suppress the growth of USA300 in vitro compared with propionic acid,USA300 [1]; 4% dimethyl sufoxide,equivalent in efficacy
same,concentration for complete growth inhibition of USA300,"USA300 [1]; dissolved in 4% dimethyl sufoxide, overnight",100 mM
same,MBC (>1 log10 inhibition) against USA300,"USA300 [1]; dissolved in 4% dimethyl sufoxide, overnight, 0-100 mM",≥ 25 mM
CC(=O)O [acetic acid],MBC,P. acnes [2],7.5 mM
CCCC(=O)O [butyric acid],MBC,P. acnes [2],10 mM
OCC(O)CO [glycerol],growth of P. acnes,P. acnes [3],did not influence; also recorded: did not change significantly
same,USA300 colonization,USA300 [4],did not significantly alter
same,size of USA300-infected lesions,USA300 [4],did not significantly alter
same,growth of USA300,USA300 [5],did not influence
CC(O)C(=O)O (stereo not drawn) [lactic acid],MBC,P. acnes [2],10 mM
O=C(O)CCC(=O)O [succinic acid],antimicrobial activity against P. acnes after buffering,"P. acnes [2]; 5 mM succinic acid buffered with ammonium hydroxide, pH 7.4",persisted
same,MBC,P. acnes [2],5 mM
same,concentration that completely killed P. acnes,P. acnes [2]; MBC assay,≥ 210 mM
same,concentration that effectively suppressed the growth of P. acnes,P. acnes [2]; MBC assay,≥ 25 mM
same,intracellular pH of P. acnes,P. acnes [6],significantly lowered
same,P. acnes-induced inflammation,P. acnes [7]; application of succinic acid (FIG. 5),significantly neutralizes
same,P. acnes numbers in ears,"P. acnes [7]; intralesional injection, 5 mM",2.9×10^4±1.3×10^4 CFU
same,MIP-2 production less than in PBS-injected ear,"P. acnes [7]; intralesional injection, 5 mM, two days after injection, ELISA",approximately 50%
same,P. acnes-induced redness,"P. acnes [7]; intralesional injection, 5 mM, vs PBS",reduced
same,MIP-2 production,P. acnes [7]; [8],considerably lowered
same,P. acnes colonization,P. acnes [7]; [8],considerably lowered
